Where two headings read alike, the source gives them in different places.
Tests used:
muscarinic receptors = assay: (-)3H-QNB binding to rat cerebral cortex homogenates with and without Cu++ treatment
[1] = tested on: CA1 neurons in the hippocampal slice; assay: Electrophysiological evaluation in rat hippocampal slices
Method: In general terms the effects of microdrops of AF150, ACh and PZ were applied to rat hippocampal cells recorded intracellularly. The exact concentrations of the drug at the receptor sites are not known, using this method. However, this method has an advantage over the perfusion method, in that it gives a more correct picture from the electrophysiological point of view (Segal, loc cit).
Intracellular responses to AF150 of CA1 neurons in the hippocampal slice were recorded, using the method of Segal. Small hyperpolarizing current pulses (current traces not shown) were alternated with stimulation of the Schaffer-commissural afferents producing postsynaptic potentials.

AF64A-treated rats [2] = assay: Passive avoidance (PA) in AF64A-treated rats; format: in vivo; conditions: for Retention latency after 72 hours: i.p.
From the text: This animal model mimics to a certain extent the cholinergic hypofunction in SDAT (Fisher and Hanin, Ann. Rev. Pharmacol. Toxicol. 26: 161-181, 1986). The method described in Fisher et al (J. Pharmacol. Exptl. Therap., 1991, in the press) and in Fisher et al (Neurosci. Lett. 102: 325-331, 1989) was used here.
No significant differences were found among the different groups of animals tested in the initial latency test; the initial latency ranged from 20 and 31 seconds. In all the experiments using AF150, the compound as free base was dissolved in 10 mM phosphate buffer having pH 7.35.

AF64A-treated rats [3] = assay: Morris water maze (MWM) in AF64A-treated rats; format: in vivo; conditions: i.p.
Method: This animal model, which mimics the cholinergic hypofunction and cognitive impairments in SDAT was used as described in Fisher et al (J. Pharmacol. Exptl. Therap, 1991, in the press).
Rats were injected with AF64A (3 nmole/2 µl./side, icv) or saline (2 µl., icv), in presence of phosphate buffer or AF151.

scopolamine-treated rats = assay: Passive avoidance (PA) in scopolamine-treated rats; format: in vivo, Sprague-Dawley rats
Method: Naive male Sprague-Dawley rats, three months old (obtained from Charles River Breeding, U.K.), were used (weighing 200-300 g.). The passive avoidance (PA) test is according to Fisher et al, Neurosci. Lett. 102: 325 (1989), except that in these rats amnesia was induced by scopolamine.
Eight groups of 17-20 naive rats were used. Each group was divided into two subgroups of 7-10 rats each: subgroup 1 was injected with scopolamine HBr (0.5 mg./kg. in saline, s.c., 15 min. before the shock) and subgroup 2 was injected with saline (1 ml./kg., s.c., 15 min. before the shock). Seven of the groups were treated within one minute after the shock with one of the following doses of the tested compound: 0.1, 0.5, 1, 3, 5, 8, 10 mg./kg. (in saline, i.p.) and one group received saline (1 ml./kg., i.p.).
Eight groups of 18-20 naive rats each were used. Each group was divided into two subgroups of 9-10 rats each: subgroup 1 was injected with scopolamine HBr (0.5 mg./kg. in saline, s.c., 15 min. before the shock) and subgroup 2 was injected with saline (1 ml./kg., s.c., 15 min. before the shock). Seven of the groups were treated, within one minute after the shock, with one of the following doses of AF125(N): 0.1, 0.5, 1, 3, 5, 8 or 10 mg./kg. (in saline, i.p.) and one group received saline (1 ml./kg., i.p.).

[4] = post-shock AF125 0.1 mg/kg i.p., pre-shock Saline
[5] = post-shock AF125 0.1 mg/kg i.p., pre-shock Scopolamine
[6] = post-shock AF125 0.5 mg/kg i.p., pre-shock Saline
[7] = post-shock AF125 0.5 mg/kg i.p., pre-shock Scopolamine
[8] = post-shock AF125 1.0 mg/kg i.p., pre-shock Saline
[9] = post-shock AF125 1.0 mg/kg i.p., pre-shock Scopolamine
[10] = post-shock AF125 3.0 mg/kg i.p., pre-shock Saline
[11] = post-shock AF125 3.0 mg/kg i.p., pre-shock Scopolamine
[12] = post-shock AF125 5.0 mg/kg i.p., pre-shock Saline
[13] = post-shock AF125 5.0 mg/kg i.p., pre-shock Scopolamine
[14] = post-shock AF125 8.0 mg/kg i.p., pre-shock Saline
[15] = post-shock AF125 8.0 mg/kg i.p., pre-shock Scopolamine
[16] = post-shock AF125 10.0 mg/kg i.p., pre-shock Saline
[17] = post-shock AF125 10.0 mg/kg i.p., pre-shock Scopolamine

## CC1=NCC2(CCN(C)CC2)O1 [AF150, 2-Methyl-spiro(1,3-oxazoline-5,4')-1'-methylpiperidine]
Muscarinic receptors; with Cu++ pretreatment (100 µM, 30 minutes)
  %H (% of high affinity state): 37%
Muscarinic receptors; with Cu++ pretreatment (100 µM, 30 minutes), listed as 5
  %H (% of high affinity state): 37±2%
Muscarinic receptors; with Cu++ pretreatment (100 µM, 30 minutes), read-out: KH
  Ki: 0.52 ± 0.003 µM
Muscarinic receptors; with Cu++ pretreatment (100 µM, 30 minutes), read-out: KL
  Ki: 18 ± 2 µM
Muscarinic receptors; without pretreatment
  %H (% of high affinity state): 14%
Muscarinic receptors; without pretreatment, listed as 5
  %H (% of high affinity state): 14±1%
Muscarinic receptors; without pretreatment, read-out: KH
  Ki: 0.32 µM
Muscarinic receptors; without pretreatment, read-out: KL
  Ki: 33.5 µM
[1]; applied topically by microdrops
  slow AHP (Ca++-dependent K+ conductance): blocks the slow AHP
[1]; applied topically by microdrops (AF150: 100 µM)
  depolarization: potent depolarizing response
[1]; microdrops (100 µM)
  input resistance at rest: real increase in input resistance at rest
  postsynaptic potentials (PSPs): small reduction in postsynaptic potentials
AF64A-treated rats [2]; AF150 0.1 mg./kg., rats treated with AF64A (3 nmole/2µl./side, icv)
  Retention latency after 72 hours: 449.5 ± 52.1 s
AF64A-treated rats [2]; AF150 0.1 mg./kg., rats treated with saline
  Retention latency after 72 hours: 511.8 ± 45.7 s
AF64A-treated rats [2]; AF150 0.2 mg./kg., rats treated with AF64A
  Retention latency after 72 hours: 481.1 ± 54.3 s
AF64A-treated rats [2]; AF150 0.2 mg./kg., rats treated with saline
  Retention latency after 72 hours: 479.1 ± 57.2 s
AF64A-treated rats [2]; AF150 1.0 mg./kg., rats treated with AF64A
  Retention latency after 72 hours: 600.0 ± 0 s
AF64A-treated rats [2]; AF150 1.0 mg./kg., rats treated with saline
  Retention latency after 72 hours: 571.6 ± 28.4 s
AF64A-treated rats [2]; administered orally at 0.2 and 1.0 mg./kg., free base, AF64A-treated rats (not shown)
  retention latency: improved significantly

## CC1=NC2(CCN(C)CC2)CO1 [AF151, 1-methylpiperidine-4-spiro-4'-(2'-methyl-1',3'-oxazoline)]
AF64A-treated rats [3]; icv AF64A, AF151 0.07 mg./kg., Block 1
  Path length: 729.0± 98.2 cm.
AF64A-treated rats [3]; icv AF64A, AF151 0.07 mg./kg., Block 2
  Path length: 918.1±124.3 cm.
AF64A-treated rats [3]; icv AF64A, AF151 0.07 mg./kg., Block 3
  Path length: 743.1±151.1 cm.
AF64A-treated rats [3]; icv AF64A, AF151 0.07 mg./kg., Block 4
  Path length: 574.9±101.1 cm.
AF64A-treated rats [3]; icv AF64A, AF151 0.07 mg./kg., Reversal
  Path length: 602.9± 97.9 cm.
AF64A-treated rats [3]; icv AF64A, AF151 0.3 mg./kg., Block 1
  Path length: 862.3±151.0 cm.
AF64A-treated rats [3]; icv AF64A, AF151 0.3 mg./kg., Block 2
  Path length: 843.5±197.5 cm.
AF64A-treated rats [3]; icv AF64A, AF151 0.3 mg./kg., Block 3
  Path length: 539.9±146.2 cm.
AF64A-treated rats [3]; icv AF64A, AF151 0.3 mg./kg., Block 4
  Path length: 297.9± 60.4 cm.
AF64A-treated rats [3]; icv AF64A, AF151 0.3 mg./kg., Reversal
  Path length: 390.5± 77.0 cm.
AF64A-treated rats [3]; icv AF64A, AF151 1.0 mg./kg., Block 1
  Path length: 656.6±107.6 cm.
AF64A-treated rats [3]; icv AF64A, AF151 1.0 mg./kg., Block 2
  Path length: 802.7±111.1 cm.
AF64A-treated rats [3]; icv AF64A, AF151 1.0 mg./kg., Block 3
  Path length: 795.0±131.3 cm.
AF64A-treated rats [3]; icv AF64A, AF151 1.0 mg./kg., Block 4
  Path length: 434.4± 33.0 cm.
AF64A-treated rats [3]; icv AF64A, AF151 1.0 mg./kg., Reversal
  Path length: 606.0± 60.0 cm.
AF64A-treated rats [3]; icv Sal., AF151 0.07 mg./kg., Block 1
  Path length: 490.6± 74.0 cm.
AF64A-treated rats [3]; icv Sal., AF151 0.07 mg./kg., Block 2
  Path length: 562.9± 92.7 cm.
AF64A-treated rats [3]; icv Sal., AF151 0.07 mg./kg., Block 3
  Path length: 429.2± 76.5 cm.
AF64A-treated rats [3]; icv Sal., AF151 0.07 mg./kg., Block 4
  Path length: 278.0± 44.0 cm.
AF64A-treated rats [3]; icv Sal., AF151 0.07 mg./kg., Reversal
  Path length: 453.9± 76.0 cm.
AF64A-treated rats [3]; icv Sal., AF151 0.3 mg./kg., Block 1
  Path length: 517.8± 45.3 cm.
AF64A-treated rats [3]; icv Sal., AF151 0.3 mg./kg., Block 2
  Path length: 365.1± 58.4 cm.
AF64A-treated rats [3]; icv Sal., AF151 0.3 mg./kg., Block 3
  Path length: 424.6± 92.3 cm.
AF64A-treated rats [3]; icv Sal., AF151 0.3 mg./kg., Block 4
  Path length: 346.7± 64.4 cm.
AF64A-treated rats [3]; icv Sal., AF151 0.3 mg./kg., Reversal
  Path length: 306.8± 43.3 cm.
AF64A-treated rats [3]; icv Sal., AF151 1.0 mg./kg., Block 1
  Path length: 607.4± 90.6 cm.
AF64A-treated rats [3]; icv Sal., AF151 1.0 mg./kg., Block 2
  Path length: 440.2± 90.1 cm.
AF64A-treated rats [3]; icv Sal., AF151 1.0 mg./kg., Block 3
  Path length: 408.1± 97.1 cm.
AF64A-treated rats [3]; icv Sal., AF151 1.0 mg./kg., Block 4
  Path length: 233.8± 30.6 cm.
AF64A-treated rats [3]; icv Sal., AF151 1.0 mg./kg., Reversal
  Path length: 450.0± 93.5 cm.

## CC1=NCC2(CN3CCC2CC3)O1 (racemic) [AF125, 2-Methyl-spiro(1,3 oxazoline-5,3')quinuclidine]
scopolamine-treated rats; 3 mg./kg. i.p., pre-shock saline treated rats
  side effects: slight diarrhea
scopolamine-treated rats; 5 mg./kg. i.p., pre-shock saline treated rats
  side effects: stronger diarrhea
scopolamine-treated rats; 8 and 10 mg./kg. i.p., pre-shock saline treated rats
  side effects: severe diarrhea with lacrimation
scopolamine-treated rats; [4]
  Initial latency, Mean: 49.5
  Retention latency, Mean: 572.8
scopolamine-treated rats; [5]
  Initial latency, Mean: 33.6
  Retention latency, Mean: 128.8
scopolamine-treated rats; [6]
  Initial latency, Mean: 42.0
  Retention latency, Mean: 600.0
scopolamine-treated rats; [7]
  Initial latency, Mean: 47.4
  Retention latency, Mean: 222.7
scopolamine-treated rats; [8]
  Initial latency, Mean: 36.0
  Retention latency, Mean: 555.8
scopolamine-treated rats; [9]
  Initial latency, Mean: 23.3
  Retention latency, Mean: 261.2
scopolamine-treated rats; [10]
  Initial latency, Mean: 51.9
  Retention latency, Mean: 530.4
scopolamine-treated rats; [11]
  Initial latency, Mean: 47.3
  Retention latency, Mean: 296.0
scopolamine-treated rats; [12]
  Initial latency, Mean: 34.7
  Retention latency, Mean: 426.7
scopolamine-treated rats; [13]
  Initial latency, Mean: 51.3
  Retention latency, Mean: 227.3
scopolamine-treated rats; [14]
  Initial latency, Mean: 41.2
  Retention latency, Mean: 594.1
scopolamine-treated rats; [15]
  Initial latency, Mean: 53.9
  Retention latency, Mean: 294.9
scopolamine-treated rats; [16]
  Initial latency, Mean: 46.3
  Retention latency, Mean: 498.3
scopolamine-treated rats; [17]
  Initial latency, Mean: 45.9
  Retention latency, Mean: 288.3
scopolamine-treated rats; pre-shock scopolamine treated rats
  side effects: did not exhibit any side effects
